The values that follow come from patent publication US8518869B2, “Pharmaceutical combined preparation containing a therapeutic protein” (Austria Wirtschaftsservice Gesellschaft m.b.H., priority 2004, dated 2013).

On data set [1], the source says:
It is understood that often arrangements must be made also for the storage of the preparation according to the invention so that said preparation will remain stable over an extended period of time. […] Hereby, it is possible to store the low-molecular thiol compound and the nitrosated protein of the preparation according to the invention both in combined and in separate form.

For data set [2], the system named is collagen-induced platelet aggregation. Put plainly: collagen-induced platelet aggregation in human plasma rich in thrombocytes (aggregometer, method by Born). The format is cell-based. The following applies: 300 μmol/L, ~1 μg collagen/mL TRP.
Experimental: The platelet aggregation was performed with human plasma rich in thrombocytes (TRP) in a Dual Kanal Chronolog Aggregometer basically according to the method by Born (1969). At the onset of each experiment, the exact dose of collagen was determined for the aggregation induced by collagen (˜1 μg collagen/mL TRP) (95-100% inhibition of the collagen-induced aggregation by 300 μmol/L of acetylsalicylic acid). […] After another minute, aggregation was induced with collagen. Control experiments with collagen alone were carried out after every second to third measurement. […] In experiments with different thiol- and non-thiol-containing substances (N-acetyl-L-cysteine, ascorbic acid, DL-homocysteine, taurine, L-cysteine), pre-incubation was effected primarily with those substances, in analogy to the trials using reduced glutathione.

A value given as a limit tells only on which side of the number the result lay.

Turning to `N[C@@H](CS)C(=O)O` [L-cysteine], in data set [1], the “pH-value at which stability in solution is greatest” value is listed as less than 7.
Take `CC(=O)Oc1ccccc1C(=O)O` [acetylsalicylic acid]: the inhibition at 300 µM in data set [2] lay in the range of 95 to 100%.
Take haemoglobin: the “pH-value at which stability in solution is greatest” value in data set [1] is 6 and 7.
